Tests used:
[1] = system: NFkB; assay: NFkB-dependent β-lactamase reporter assay (NFkB-bla), TNFα stimulated; format: cell-based
Excerpt: By way of example, and not of limitation, such an assay may comprise contacting a cell expressing the NFκβ-dependent reporter construct, and monitoring the level of β-lactamase expression, wherein a decrease in expression compared to a cell not contacted with the compound indicates a reduction in NFκB activity.
The above-described assays were validated using known inhibitors of the NFkB pathway (FIG. 6). The proteasome inhibitor MG-132 (1) 16 served as a positive control for the IkBα stabilization assay. The translocation assay used BAY 11-7082 (2), an agent that inhibits the TNFα-induced phosphorylation of IkBα. […] Additionally, a substituted 2-(thiophen-2-yl)quinazoline 3 which acts as an inhibitor of NFkB and Aβ1 mediated transcriptional activation (Palanki et al., 2003, Bioorg. Med. Chem. Lett. 13:4077) was used as a positive control in a secondary assay that used TNFα to stimulate NFkB-dependent expression of a β-lactamase reporter (NFkB-bla in FIG. 7). This compound also served as a negative control for the dual luciferase IkBa stabilization assay.

[2] = system: IkBα; assay: dual luciferase IkBα stabilization screen in OCI-Ly3; format: cell-based; conditions: OCI-Ly3 cells
Excerpt: FIG. 5A-B depicts (A) The two-color dual luciferase based assay. IκBα is fused to a luciferase emitting greenlight (CBG68), while a red light-emitting luciferase (CBR) is present in its native state. Both luciferases are regulated by binding of the tet repressor to the tet operator (TO) binding site (TO), allowing simultaneous induction of the luciferases by the CMV promoter upon addition of doxycycline and test compounds. The CBR protein serves to normalize for non-specific effects, while the levels of the IκBα-CBG68 protein increase uniquely with inhibition of the NFκB pathway leading to IκBα degradation. (B) The nuclear translocation assay. TNFα stimulation results in nuclear translocation of NFκB, which is detected by immunofluorescence using an anti-p65 antibody and a secondary antibody labeled with an Alexa 647 fluorophore (A647). […]
To identify modulators of IkBα stability in ABC-DLBCL lines, such as small molecules inhibiting IKK or proteasome activity, changes in the level of an exogenous IkBα-luciferase fusion reporter expressed by an NFkB-insensitive promoter were measured. […] Upon doxycycline induction of both luciferase reporters, compounds that increased green luminescence with minimal effects on the red luminescence signal were scored as IkBα stabilizers. […]

[3] = system: NFkB; assay: TNFα-induced NFkB nuclear translocation high-content screen in HUVEC; format: cell-based, human
Excerpt: FIG. 5A-B depicts (A) The two-color dual luciferase based assay. IκBα is fused to a luciferase emitting greenlight (CBG68), while a red light-emitting luciferase (CBR) is present in its native state. Both luciferases are regulated by binding of the tet repressor to the tet operator (TO) binding site (TO), allowing simultaneous induction of the luciferases by the CMV promoter upon addition of doxycycline and test compounds. The CBR protein serves to normalize for non-specific effects, while the levels of the IκBα-CBG68 protein increase uniquely with inhibition of the NFκB pathway leading to IκBα degradation. (B) The nuclear translocation assay. TNFα stimulation results in nuclear translocation of NFκB, which is detected by immunofluorescence using an anti-p65 antibody and a secondary antibody labeled with an Alexa 647 fluorophore (A647). […] In the assay, nuclear translocation of the endogenous p65 RelA subunit of NFkB, at 30 min post-stimulation, was monitored using fluorescent antibody detection and an automated imaging platform. (Mayer et al., 2006, Methods Enzyme 414:266) NFkB inhibitors in this assay, such as IkBα stabilizers, were detected as compounds that interfered with p65 translocation to the nucleus.

identified in IkBα stabilization screen [2]: identified
Structure (SMILES): O=S(=O)(Nc1cccc2cccnc12)c1ccccc1 [Compound 4, N-(quinolin-8-yl)benzenesulfonamide]
ability to inhibit the NFkB pathway (β-lactamase reporter) [1]: confirmed the ability of these compounds to inhibit the NFkB pathway
identified in NFkB translocation screen [3]: identified

Source: patent US8685963B2, “Compounds that inhibit NFκB and BACE1 activity” (The Trustees of Columbia University in the city of New York, priority 2008, dated 2014)
